In PubChem BioAssay (NCI):
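Cells were grown in 96-well plates and exposed to each compound for 48 hours at five concentrations; endpoints were interpolated linearly between bracketing concentrations, or set to the highest concentration if not reached. GI50 marks 50% less growth. TGI marks complete inhibition of growth.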

Columns and labels:
Test in all cases: NCI-60 cell line screen, 48 h
786-0 renal = test system: 786-0 renal
A498 renal = test system: A498 renal
A549 NSCLC = test system: A549 NSCLC
ACHN renal = test system: ACHN renal
BT-549 breast = test system: BT-549 breast
CAKI-1 renal = test system: CAKI-1 renal
CCRF-CEM leukemia = test system: CCRF-CEM leukemia
COLO 205 colon = test system: COLO 205 colon
DU-145 prostate = test system: DU-145 prostate
EKVX NSCLC = test system: EKVX NSCLC
HCC-2998 colon = test system: HCC-2998 colon
HCT-116 colon = test system: HCT-116 colon
HCT-15 colon = test system: HCT-15 colon
HL-60(TB) leukemia = test system: HL-60(TB) leukemia
HOP-62 NSCLC = test system: HOP-62 NSCLC
HOP-92 NSCLC = test system: HOP-92 NSCLC
HS 578T breast = test system: HS 578T breast
HT29 colon = test system: HT29 colon
IGROV1 ovarian = test system: IGROV1 ovarian
K-562 leukemia = test system: K-562 leukemia
KM12 colon = test system: KM12 colon
LOX IMVI melanoma = test system: LOX IMVI melanoma
M14 melanoma = test system: M14 melanoma
MALME-3M melanoma = test system: MALME-3M melanoma
MCF7 breast = test system: MCF7 breast
MDA-MB-435 = test system: MDA-MB-435
MDA-MB-468 breast = test system: MDA-MB-468 breast
MOLT-4 leukemia = test system: MOLT-4 leukemia
NCI-H226 lung = test system: NCI-H226 lung
NCI-H23 lung = test system: NCI-H23 lung
NCI-H460 lung = test system: NCI-H460 lung
NCI-H522 lung = test system: NCI-H522 lung
NCI/ADR-RES ovarian = test system: NCI/ADR-RES ovarian
OVCAR-3 ovarian = test system: OVCAR-3 ovarian
OVCAR-4 ovarian = test system: OVCAR-4 ovarian
OVCAR-5 ovarian = test system: OVCAR-5 ovarian
OVCAR-8 ovarian = test system: OVCAR-8 ovarian
PC-3 prostate = test system: PC-3 prostate
RPMI-8226 leukemia = test system: RPMI-8226 leukemia
RXF 393 renal = test system: RXF 393 renal
SF-268 CNS = test system: SF-268 CNS
SF-295 CNS = test system: SF-295 CNS
SF-539 CNS = test system: SF-539 CNS
SK-MEL-28 melanoma = test system: SK-MEL-28 melanoma
SK-MEL-5 melanoma = test system: SK-MEL-5 melanoma
SK-OV-3 ovarian = test system: SK-OV-3 ovarian
SN12C renal = test system: SN12C renal
SNB-19 CNS = test system: SNB-19 CNS
SR leukemia = test system: SR leukemia
SW-620 colon = test system: SW-620 colon
T-47D breast = test system: T-47D breast
TK-10 renal = test system: TK-10 renal
U251 CNS = test system: U251 CNS
UACC-257 melanoma = test system: UACC-257 melanoma
UACC-62 melanoma = test system: UACC-62 melanoma

Q: What does the source list for `CS(=O)(=O)Nc1ccc(-c2ccc3c(c2)ncn3-c2ccc(NC(=O)Nc3ccc(Cl)c(C(F)(F)F)c3)cc2)cc1`?
A: GI50 (786-0 renal): 1.87 µM; TGI (786-0 renal): 4.42 µM; GI50 (A498 renal): 2.42 µM; TGI (A498 renal): 7.41 µM; GI50 (A549 NSCLC): 3 µM; TGI (A549 NSCLC): 10.8 µM; GI50 (ACHN renal): 2.72 µM; TGI (ACHN renal): 9.66 µM; GI50 (BT-549 breast): 2.99 µM; TGI (BT-549 breast): 7.17 µM; GI50 (CAKI-1 renal): 4.73 µM; TGI (CAKI-1 renal): 20.9 µM; GI50 (CCRF-CEM leukemia): 2.72 µM; TGI (CCRF-CEM leukemia): 8.84 µM; GI50 (COLO 205 colon): 2.05 µM; TGI (COLO 205 colon): 5.15 µM; GI50 (DU-145 prostate): 3.84 µM; TGI (DU-145 prostate): 17.1 µM; GI50 (EKVX NSCLC): 2.89 µM; TGI (EKVX NSCLC): 10.2 µM; GI50 (HCC-2998 colon): 4.32 µM; TGI (HCC-2998 colon): 14.7 µM; GI50 (HCT-116 colon): 2.9 µM; TGI (HCT-116 colon): 9.97 µM; GI50 (HCT-15 colon): 2.73 µM; TGI (HCT-15 colon): 10.1 µM; GI50 (HL-60(TB) leukemia): 1.79 µM; TGI (HL-60(TB) leukemia): 4.02 µM; GI50 (HOP-62 NSCLC): 2.06 µM; TGI (HOP-62 NSCLC): 4.96 µM; GI50 (HOP-92 NSCLC): 3.41 µM; TGI (HOP-92 NSCLC): 8.67 µM; GI50 (HS 578T breast): 2.14 µM; TGI (HS 578T breast): 6.46 µM; GI50 (HT29 colon): 2.95 µM; TGI (HT29 colon): 10.8 µM; GI50 (IGROV1 ovarian): 3.24 µM; TGI (IGROV1 ovarian): 11.5 µM; GI50 (K-562 leukemia): 1.95 µM; TGI (K-562 leukemia): 5.48 µM; GI50 (KM12 colon): 0.38 µM; TGI (KM12 colon): 9.59 µM; GI50 (LOX IMVI melanoma): 2.63 µM; TGI (LOX IMVI melanoma): 7.31 µM; GI50 (M14 melanoma): 2.38 µM; TGI (M14 melanoma): 9.11 µM; GI50 (MALME-3M melanoma): 2.1 µM; TGI (MALME-3M melanoma): 5.58 µM; GI50 (MCF7 breast): 1.86 µM; TGI (MCF7 breast): 5.04 µM; GI50 (MDA-MB-435): 2.97 µM; TGI (MDA-MB-435): 12.4 µM; GI50 (MDA-MB-468 breast): 2.43 µM; TGI (MDA-MB-468 breast): 7.78 µM; GI50 (MOLT-4 leukemia): 1.72 µM; TGI (MOLT-4 leukemia): 5.05 µM; GI50 (NCI-H226 lung): 3.05 µM; TGI (NCI-H226 lung): 11.8 µM; GI50 (NCI-H23 lung): 2.42 µM; TGI (NCI-H23 lung): 7.92 µM; GI50 (NCI-H460 lung): 2.64 µM; TGI (NCI-H460 lung): 9.49 µM; GI50 (NCI-H522 lung): 2.33 µM; TGI (NCI-H522 lung): 8.12 µM; GI50 (NCI/ADR-RES ovarian): 5.19 µM; TGI (NCI/ADR-RES ovarian): 24.8 µM; GI50 (OVCAR-3 ovarian): 3.17 µM; TGI (OVCAR-3 ovarian): 10.6 µM; GI50 (OVCAR-4 ovarian): 4.05 µM; TGI (OVCAR-4 ovarian): 21.1 µM; GI50 (OVCAR-5 ovarian): 3.03 µM; TGI (OVCAR-5 ovarian): 11.1 µM; GI50 (OVCAR-8 ovarian): 2.38 µM; TGI (OVCAR-8 ovarian): 6.87 µM; GI50 (PC-3 prostate): 2.81 µM; TGI (PC-3 prostate): 10.3 µM; GI50 (RPMI-8226 leukemia): 1.9 µM; TGI (RPMI-8226 leukemia): 5.16 µM; GI50 (RXF 393 renal): 1.05 µM; TGI (RXF 393 renal): 3.83 µM; GI50 (SF-268 CNS): 3.42 µM; TGI (SF-268 CNS): 15.4 µM; GI50 (SF-295 CNS): 1.54 µM; TGI (SF-295 CNS): 3.21 µM; GI50 (SF-539 CNS): 1.56 µM; TGI (SF-539 CNS): 6.52 µM; GI50 (SK-MEL-28 melanoma): 2.53 µM; TGI (SK-MEL-28 melanoma): 10.3 µM; GI50 (SK-MEL-5 melanoma): 1.85 µM; TGI (SK-MEL-5 melanoma): 3.87 µM; GI50 (SK-OV-3 ovarian): 2.84 µM; TGI (SK-OV-3 ovarian): 9.55 µM; GI50 (SN12C renal): 2.99 µM; TGI (SN12C renal): 11.2 µM; GI50 (SNB-19 CNS): 3.23 µM; TGI (SNB-19 CNS): 12 µM; GI50 (SR leukemia): 1.61 µM; TGI (SR leukemia): 3.71 µM; GI50 (SW-620 colon): 2.97 µM; TGI (SW-620 colon): 12.8 µM; GI50 (T-47D breast): 2.69 µM; TGI (T-47D breast): 12.2 µM; GI50 (TK-10 renal): 3.83 µM; TGI (TK-10 renal): 13.5 µM; GI50 (U251 CNS): 2.49 µM; TGI (U251 CNS): 10.8 µM; GI50 (UACC-257 melanoma): 2.43 µM; TGI (UACC-257 melanoma): 6.85 µM; GI50 (UACC-62 melanoma): 1.91 µM; TGI (UACC-62 melanoma): 4.23 µM
